One assay concerns Transglutaminase (TG-1). The assay is described as follows: Transglutaminase I levels in keratinocytes (ELISA based TG-1 assay). The note with it: 48 hour treatment. It counts as cell-based, human. The protocol: (§1) Human keratinocytes, isolated from neonatal foreskin by trypsin treatment were grown in Dulbecco Modification Eagle (DME) Hams F12 (3:1) medium/5% fetal calf serum in the presence of mitomycin C treated 3T3 mouse fibroblasts for establishing dividing keratinocyte colonies. Cells were grown under the above condition until their second passage and kept frozen for future use. Frozen second passage keratinocytes were thawed and plated into the above medium and grown for five days. On day 5, when the cells were 70-80% confluent, they were trypsinized and plated in the serum-free medium for the various experiments.
During the process of terminal differentiation in the epidermis, a 15 nm thick layer of protein, known as the cornified envelope (CE)is formed on the inner surface of the cell periphery. The CE is composed of numerous distinct proteins which have been cross-linked together by the formation of N ^ε -(-γ-glutamyl) lysine isodipeptide bonds catalyzed by the action of at least two different transglutaminases expressed in the epidermis. Transglutaminase (TG-1) is expressed in abundance in the differentiated layers of the epidermis, especially the granular layer, but is absent in the undifferentiated basal epidermis. Thus, TG-1 is a useful marker of epidermal keratinocyte differentiation with high TG-1 levels indicating a more differentiated state. An ELISA based TG-1 assay, using a TG-1 antibody, was used to assess the state of differentiation of the cultured keratinocytes in the examples that follow.
The level of TG-1 was measured as follows. […] The DNA content of the cells in the wells were first determined before the TG-1 assay.
TG-1 levels of the cells in the wells were determined using the TG-1 specific monoclonal antibody (BC1) (first antibody) (obtained from Amersham Life Sciences) and using a peroxidase labelled rabbit antimouse IgG fragment (second antibody). The plates were blocked by 5% nonfat milk in TBS (Tris buffered saline, pH 8.0) for one hour followed by overnight incubation with the first antibody (1:2,000 fold dilution) in 1% milk/TBS at 4° C. After rinsing the plates three times with 1% milk/TBS containing 0.05% Tween 20, the plates were incubated with 1:4000 dilution of the second antibody at room temperature for two hours. The plates were rinsed three times with 1% milk/TBS/Tween and three times with TBS. Color was developed by incubation with o-phenylene diamine and hydrogen peroxide. The optical density was read at 410 nm in a microtiter plate reader and the TG-1 levels were calculated as OD/DNA fluorescence. The mean ±Standard Deviation of at least six separate wells were used for calculation and statistical analysis of the data. Results are expressed as % of control.
Cornified envelope formation is determined by the activity of transglutaminase enzyme which cross-links all the envelope precursor proteins to form the envelope. This enzyme is calcium dependent and is inhibited by calcium chelators such as citric acid and citric acid esters.
In general terms: An ELISA detects its analyte on a solid surface through an enzyme-linked reagent.

For assay [1], the system named is human keratinocytes. The assay is described as follows: 3H choline incorporation into phospholipids of keratinocytes. It counts as cell-based. Conditions: Homo sapiens, Keratinocyte, 48 hours, * statistically significant effects, read-out: 3H choline incorporated into cellular phospholipids. As to the method:
as §1
Choline acts as an essential nutrient for the cellular phospholipid biosynthesis of keratinocytes. Choline present in the medium is used up by the cells for phospholipid biosynthesis. If TCC provides choline for the cells it will complete with the choline in the medium for incorporation into cellular phospholipids. When cells are incubated with ^3 H-labelled choline, its incorporation into phospholipids will be decreased by the presence of unlabelled choline or TCC in the medium.
[…] The wells were washed, total lipids were extracted using Bleigh Dyer method as described above and the total counts in the chloroform phase was determined. To ascertain that the counts are present only in the phospholipid fraction, the amount of ^3 H choline incorporated into the different lipid fractions were quantitated by running TLC of the fractions in the above solvent system, and the amount of radioactivity in the phospholipid fraction (origin) was quantitated using BioScan plate reader. The cpm of ^3 H choline was plotted against the amount of cold choline or TCC added in the medium to assess the competition between choline supplied from TCC with ^3 H choline.
The amount of ^3 H choline incorporated into cellular phospholipids was determined and expressed as % of controls.

Assay [2] relates to human keratinocytes. The assay is described as follows: DNA synthesis in keratinocytes (3H-thymidine incorporation, keratinocyte proliferation). It counts as cell-based. Conditions: Homo sapiens, Keratinocyte; for activity at 0.1 µM / activity at 1 µM / activity at 10 µM / activity at 100 µM / activity at 1000 µM / activity at 10000 µM: read-out: Rate of DNA synthesis; for minimal effective concentration: read-out: concentration at which inhibitory to DNA synthesis. From the text: The incorporation of ^3 H-thymidine by cultured keratinocytes was used as an assay of keratinocyte proliferation. Thymidine is one of four deoxynucleosides which are the monomeric units of DNA, the universal library of genetic information in the animal kingdom. Prior to cell division of a somatic cell such as a keratinocyte, the complete genome of the cell undergoing cell division is replicated. This involves large scale DNA synthesis by the cell and enables both daughter cells to receive identical copies of the genetic material. When ^3 H-thymidine is included in the culture media of keratinocytes which are synthesizing DNA in preparation for cell division then the labelled nucleoside is incorporated into the newly synthesized DNA. The extent of incorporation of ^3 H-thymidine into a population of cells is proportional to the rate of DNA synthesis by this population of cells and therefore an indication of their cellular proliferation.
1. Normal human keratinocytes isolated from neonatal foreskins by trypsin treatment were grown in DME medium/5% fetal calf serum in the presence of mitomycin C treated 3T3 mouse fibroblasts for establishing dividing keratinocyte colonies. Keratinocytes were grown under the above condition until their third passage.
2. For the experiments, third passage keratinocytes were plated into a serum-free keratinocyte growth medium (KGM; obtained from Clonetics, San Diego, Calif.) containing 0.09 mM calcium. 20,000 to 30,000 cells were plated into each well of 24 well cell culture plates and grown for 5 days, until the cells reach about 80% confluence.
3. Medium was changed to fresh medium and the various test materials were added to the medium from an ethanolic stock solution. The final ethanol concentration in the cultures was kept below 0.2%. Control cultures received no tested material but were dosed with 0.2% ethanol. Each compound or combination was tested in three separate wells. In four hours, 1 uCi of ^3 H-thymidine (Amersham Corp., Sp activity 40 Ci/mmol) was added to the 1 ml medium in each well. The cells were incubated overnight and 24 hours later the amount of ^3 H-thymidine associated with the cellular DNA of keratinocytes was assessed as described below.
4. The medium was aspirated, and the wells washed with 1 ml phosphate-buffered saline. The DNA and proteins of the cells in the plate were then precipitated by adding 1 ml of ice-cold 10% trichloroacetic acid (TCA). The plates were left on ice for 30 minutes to complete the precipitation process. TCA was then aspirated and each well was then washed four times with 5% TCA. The plates were then dried on a filter pad and the cells in the wells were dissolved in 0.5 ml of 0.1N sodium hydroxide. The sodium hydroxide was then neutralized using 0.1N hydrochloric acid and the solution (1 ml total volume) was then transferred to a scintillation vial. 50 μl samples from each vial were used for protein assay using BCA protein assay reagent obtained from Pierce Chemical Company. 8 ml of a scintillation fluid (Ecolume) was added to the rest of the solution in the vial, and the vials were counted in a scintillation counter to determine the amount of radioactivity in each vial. The DNA synthesis rate was then calculated as cpm ^3 H thymidine incorporated into total cellular DNA/microgram of cell protein for each individual well.
Background: Incorporation of labelled thymidine or its analogues reports DNA synthesis.

The mark [3] stands for this setting: 10 μM, * statistically significant.
The mark [4] stands for this setting: 100 μM, * statistically significant.
Setting [5] is: 100 μM, 24 hours exposure, ±SD, * statistically significant compared to controls.
Setting [6] is: 1000 μM, 24 hours exposure, ±SD, * statistically significant compared to controls.
[7] abbreviates: 10,000 μM, 24 hours exposure, ±SD, * statistically significant compared to controls.

SMILES strings stand for the structures. Like-named read-outs stand apart in the source and are kept apart here.

Regarding `C[N+](C)(C)CCO` [Choline, choline], in the assay with Transglutaminase (TG-1) (1 μM), the “transglutaminase I levels” value is 121.8 ± 18 % of control. Moreover, the “transglutaminase I levels” value in the assay with Transglutaminase (TG-1) (setting [3]) is listed as 124.2 ± 8.7 % of control. The “transglutaminase I levels” value with Transglutaminase (TG-1) (setting [4]) is recorded as 120.4 ± 11.3 % of control. Moreover, in the assay on human keratinocytes [1], the activity at 10 µM was determined as 61.6 ± 7.8%, the activity at 100 µM worked out at 36.9 ± 1.6% and the activity at 1000 µM was found to be 10.8 ± 5.5%. Also, in the assay with human keratinocytes [2] (24 h), the activity at 0.1 µM turned out to be 125 ± 17.6%, the activity at 1 µM was 113 ± 12%, the activity at 10 µM came out at 109 ± 3.3% and the activity at 100 µM was found to be 114 ± 12%. Moreover, in the assay on human keratinocytes [2] (24 h), the activity at 1000 µM was determined as 115 ± 24% and the activity at 10000 µM worked out at 127 ± 10.7%.

For the compound `CCCCOC(=O)CC(O)(CC(=O)OCCCC)C(=O)OCCCC` [TBC, tributylcitrate], the entries for the “transglutaminase I levels” value in the assay on Transglutaminase (TG-1) (1 μM), with Transglutaminase (TG-1) (setting [3]) and with Transglutaminase (TG-1) (setting [4]) were 100 ± 13 % of control, 79 ± 13 % of control and 79 ± 13 % of control, respectively. Further, the activity at 10 µM with human keratinocytes [1] worked out at 81.1 ± 7%; in the assay with human keratinocytes [2] (10 μM, 24 hours exposure, ±SD), 68.2 ± 13%. Moreover, the activity at 100 µM came to 121 ± 6.7% in the assay with human keratinocytes [1] and 8.7 ± 5.5% in the assay with human keratinocytes [2] (setting [5]). The activity at 1000 µM in the assay on human keratinocytes [1] was 81.1 ± 12%; with human keratinocytes [2] (setting [6]), 1.35 ± 0.1%. In addition, the activity at 0.1 µM with human keratinocytes [2] (0.1 μM, 24 hours exposure, ±SD) turned out to be 106 ± 8.4%. Further, in the assay with human keratinocytes [2] (1.0 μM, 24 hours exposure, ±SD), the activity at 1 µM worked out at 100 ± 28%. For the same compound, the activity at 10000 µM in the assay with human keratinocytes [2] (setting [7]) came out at 0.505%. For the same compound, in the assay with human keratinocytes [2] (24 hours exposure), the minimal effective concentration was greater than 10 µM.

On to `CCOC(=O)CC(O)(CC(=O)OCC)C(=O)OCC` [TEC, triethylcitrate], for which the entries for the “transglutaminase I levels” value in the assay on Transglutaminase (TG-1) (1 μM), in the assay on Transglutaminase (TG-1) (setting [3]) and in the assay on Transglutaminase (TG-1) (setting [4]) were 77.3 ± 10.7 % of control, 76.7 ± 20.8 % of control and 67.2 ± 11.9 % of control, respectively. For the same compound, the activity at 10 µM in the assay with human keratinocytes [1] is 114 ± 9.9%; with human keratinocytes [2] (10 μM, 24 hours exposure, ±SD), 79.1 ± 13.9%. The activity at 100 µM in the assay on human keratinocytes [1] came out at 89.2 ± 1.9%; in the assay on human keratinocytes [2] (setting [5]), 9.8 ± 2.3%. Further, the activity at 1000 µM with human keratinocytes [1] was 82.8 ± 22%; with human keratinocytes [2] (setting [6]), 11.2 ± 9.2%. The activity at 0.1 µM with human keratinocytes [2] (0.1 μM, 24 hours exposure, ±SD) came out at 112 ± 21.5%. In addition, the activity at 1 µM in the assay with human keratinocytes [2] (1.0 μM, 24 hours exposure, ±SD) was determined as 112 ± 13.1%. Besides, the activity at 10000 µM in the assay with human keratinocytes [2] (setting [7]) is 1.2 ± 0.02%. Further, the minimal effective concentration in the assay on human keratinocytes [2] (24 hours exposure) was greater than 10 µM.
